Legend:
Type in all cases: cell-based
STING WT variant = target: T1, STING WT variant (Homo sapiens, UniProt Q86WV6); experiment: SEAP reporter assay in HEK-Blue ISG KO-STING cells transfected with STING WT variant (Method 1); conditions: 24 h, SEAP signal vs 0.5% DMSO
T1 construct: host or cells: HEK-Blue ISG KO-STING cells (Invivogen, hkb-kostg)
Source text: (§1) Activation of STING can be determined using a SEAP reporter assay in HEK-Blue™ ISG KO-STING cells (Invivogen, cat #hkb-kostg) transfected with plasmids expressing STING variants (WT & HAQ) (referred to WO2017/175147A1). STING variants (WT & HAQ) vector were constructed based on STING-232H vector (Origene, RC208418). GFP vector (VT2069) was bought from Youbio. The detailed protocol as follows: HEK-Blue™ ISG KO-STING cells were harvest and seeding into 96 well plate, the final cell number was 0.8×10^5 cells/well. Transfections were prepared using Lipofectamine 2000 (Invitrogen, Cat #11668-027) following the manufacturer's instructions (Lipo2000/DNA=1/10), 20 ul of transfection suspension containing 1 ng STING vector was added to cell culture plate and incubated at 37° C., 5% CO2 for 24 hours. After 24 hours' incubation, compounds were added at proper concentration, and the final DMSO concentration was 0.5%. After 24 h incubation, the supernatant was collected to detect SEAP signal using Great EscAPe SEAP chemiluminescence KIT (Clontech, cat #631738) and cells were collected to detect cell viability using CellTiter-Glo Luminescent Cell Viability Assay (Promega, cat #G7573) following the manufacturer's instructions. The data were described by the ratio of the stimulating signal of compounds to 0.5% DMSO.

STING = STING (Homo sapiens, UniProt Q86WV6); experiment: IFN-β secretion from THP1 by STING activation (hIFNβ ELISA); conditions: THP1 cells, 24 h incubation, IFN-β in supernatant, top dose set according to solubility; for EC50: read-out: hIFNβ ELISA (EC50)
STING, sequence (Q86WV6 whole entry): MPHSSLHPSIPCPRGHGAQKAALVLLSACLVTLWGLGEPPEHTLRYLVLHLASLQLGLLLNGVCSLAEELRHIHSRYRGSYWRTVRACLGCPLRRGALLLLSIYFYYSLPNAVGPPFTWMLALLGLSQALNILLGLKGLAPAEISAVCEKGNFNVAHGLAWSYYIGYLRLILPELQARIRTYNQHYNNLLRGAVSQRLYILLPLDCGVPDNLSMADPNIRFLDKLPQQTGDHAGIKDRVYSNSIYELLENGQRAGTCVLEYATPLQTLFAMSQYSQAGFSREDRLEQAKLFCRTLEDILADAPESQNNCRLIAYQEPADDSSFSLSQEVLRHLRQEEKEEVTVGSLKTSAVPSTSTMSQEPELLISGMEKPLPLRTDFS
Method: In this assay, activation of STING by compounds was evaluated by detecting their ability to stimulate the secretion of IFN-β (interferon-beta) from THP1. THP1 was purchased from National Collection of Authenticated Cell Cultures (Cat #TCHu 57). The top dose of compounds was setted according to their solubility. First, Compounds were 3 times diluted with medium, 8-dose points in total. The final DMSO concentration was 0.2%. THP1 during the logarithmic phase was resuspended to 2×10^6 cells/ml in assay medium. The THP1-cell suspension was dispensed into a 96-well U bottom plate containing 50 ul of compound diluted in medium. After 24 h incubation at 37° C., 5% CO2, the supernatant was collected. The concentration of IFN-β in the supernatant was measured using a human IFNβ ELISA KIT (R&D, DY814-05). The data was fitted with GraphPad Prism or XLfit to calculate EC50 values.

STING HAQ variant = target: T2, STING HAQ variant (Homo sapiens, UniProt Q86WV6, G230A/R293Q/R71H); experiment: SEAP reporter assay in HEK-Blue ISG KO-STING cells transfected with STING HAQ variant (Method 1); conditions: 24 h, SEAP signal vs 0.5% DMSO
T2 construct: host or cells: HEK-Blue ISG KO-STING cells (Invivogen, hkb-kostg)
T2 sequence (Q86WV6 whole entry R71H/G230A/R293Q): as the sequence (Q86WV6 whole entry) above, with R71H, G230A, R293Q counted along it
Source text: as §1

[1] = 1 ng STING vector, compound 2.5 uM
[2] = 1 ng STING vector, compound 5 uM

Structure (SMILES) | Fold change related to DMSO control WT (STING WT variant; [1]) | EC50 (STING) [µM] | Fold change related to DMSO control HAQ (STING HAQ variant; [2]) | other results
CCn1nc(C)cc1C(=O)Nc1nc2cc(C(N)=O)cc(OC)c2n1CCC[C@@H]1COc2cc(C(N)=O)cc3nc(NC(=O)c4cc(C)nn4CC)n1c23 [Example 4, (R)-3-(3-(5-Carbamoyl-2-(1-ethyl-3-methyl-1H-pyrazole-5-carboxamido)-7-methoxy-1H-benzo[d]imidazol-1-yl)propyl)-2-(1-ethyl-3-methyl-1H-pyrazole-5-carboxamido)-3,4-dihydro-5-oxa-1,2a-diazaacenaphthylene-7-carboxamide] | – | – | – | Fold change related to DMSO control WT (STING WT variant; compound 26.8 uM): 2.22; hIFNβ ELISA (EC50, μM) (STING): inactive; Fold change related to DMSO control HAQ (STING HAQ variant; compound 26.8 uM): 10.21
CCn1nc(C)cc1C(=O)Nc1nc2cc(C(N)=O)cc(OCCNC)c2n1CCC[C@H]1COc2cc(C(N)=O)cc3nc(NC(=O)c4cc(C)nn4CC)n1c23 [Example 16, (S)-3-(3-(5-carbamoyl-2-(1-ethyl-3-methyl-1H-pyrazole-5-carboxamido)-7-(2-(methylamino)ethoxy)-1H-benzo[d]imidazol-1-yl)propyl)-2-(1-ethyl-3-methyl-1H-pyrazole-5-carboxamido)-3,4-dihydro-5-oxa-1,2a-diazaacenaphthylene-7-carboxamide] | 2.07 | > 17.9 | 20.47 | –
CCn1nc(C)cc1C(=O)Nc1nc2cc(C(N)=O)cc(OCCCNC(=O)C[C@H]3COCCN3)c2n1CCC[C@H]1COc2cc(C(N)=O)cc3nc(NC(=O)c4cc(C)nn4CC)n1c23 [Example 33] | 1.88 | 12 | 16.31 | –
CCn1nc(C)cc1C(=O)Nc1nc2cc(C(N)=O)cc3c2n1[C@@H](CCCn1c(NC(=O)c2cc(C)nn2CCF)nc2cc(C(N)=O)cc(OCCCOC)c21)CO3 [Example 12, (S)-3-(3-(5-carbamoyl-2-(1-(2-fluoroethyl)-3-methyl-1H-pyrazole-5-carboxamido)-7-(3-methoxypropoxy)-1H-benzo[d]imidazol-1-yl)propyl)-2-(1-ethyl-3-methyl-1H-pyrazole-5-carboxamido)-3,4-dihydro-5-oxa-1,2a-diazaacenaphthylene-7-carboxamide] | 1.89 | > 9.1 | 26.28 | –
CCn1nc(C)cc1C(=O)Nc1nc2cc(C(N)=O)cc(OCCCOC)c2n1CCC[C@@H]1COc2cc(C(N)=O)cc3nc(NC(=O)c4cc(C)nn4CC)n1c23 [Example 2, (R)-3-(3-(5-Carbamoyl-2-(1-ethyl-3-methyl-1H-pyrazole-5-carboxamido)-7-(3-methoxypropoxy)-1H-benzo[d]imidazol-1-yl)propyl)-2-(1-ethyl-3-methyl-1H-pyrazole-5-carboxamido)-3,4-dihydro-5-oxa-1,2a-diazaacenaphthylene-7-carboxamide] | – | – | – | Fold change related to DMSO control WT (STING WT variant; compound 15.65 uM): 1.99; hIFNβ ELISA (EC50, μM) (STING): inactive; Fold change related to DMSO control HAQ (STING HAQ variant; compound 15.65 uM): 2.52
CCn1nc(C)cc1C(=O)Nc1nc2cc(C(N)=O)cc(OCCCNS(C)(=O)=O)c2n1CCC[C@H]1COc2cc(C(N)=O)cc3nc(NC(=O)c4cc(C)nn4CC)n1c23 [Example 30, (S)-3-(3-(5-carbamoyl-2-(1-ethyl-3-methyl-1H-pyrazole-5-carboxamido)-7-(3-(methylsulfonamido)propoxy)-1H-benzo[d]imidazol-1-yl)propyl)-2-(1-ethyl-3-methyl-1H-pyrazole-5-carboxamido)-3,4-dihydro-5-oxa-1,2a-diazaacenaphthylene-7-carboxamide] | 1.96 | > 13 | 33.34 | –
CCn1nc(C)cc1C(=O)Nc1nc2cc(C(N)=O)cc(OCCCNC(=O)CN(C)C)c2n1CCC[C@H]1COc2cc(C(N)=O)cc3nc(NC(=O)c4cc(C)nn4CC)n1c23 [Example 20, (S)-3-(3-(5-carbamoyl-7-(3-(2-(dimethylamino)acetamido)propoxy)-2-(1-ethyl-3-methyl-1H-pyrazole-5-carboxamido)-1H-benzo[d]imidazol-1-yl)propyl)-2-(1-ethyl-3-methyl-1H-pyrazole-5-carboxamido)-3,4-dihydro-5-oxa-1,2a-diazaacenaphthylene-7-carboxamide] | 2.63 | 11.4 | 41.58 | –

More lines, main results first:

Fold change related to DMSO control WT (STING WT variant; [1]) | EC50 (STING) [µM] | Fold change related to DMSO control HAQ (STING HAQ variant; [2]) | Structure (SMILES) | other results
2.33 | 6.2 | 60.17 | CCn1nc(C)cc1C(=O)Nc1nc2cc(C(N)=O)cc(OCCOC)c2n1CCC[C@H]1COc2cc(C(N)=O)cc3nc(NC(=O)c4cc(C)nn4CC)n1c23 [Example 19, (S)-3-(3-(5-carbamoyl-2-(1-ethyl-3-methyl-1H-pyrazole-5-carboxamido)-7-(2-methoxyethoxy)-1H-benzo[d]imidazol-1-yl)propyl)-2-(1-ethyl-3-methyl-1H-pyrazole-5-carboxamido)-3,4-dihydro-5-oxa-1,2a-diazaacenaphthylene-7-carboxamide] | –
1.51 | 9.1 | 6.51 | CCn1nc(C)cc1C(=O)Nc1nc2cc(C(N)=O)cc(OCCCNC(=O)CN3CCNCC3)c2n1CCC[C@H]1COc2cc(C(N)=O)cc3nc(NC(=O)c4cc(C)nn4CC)n1c23 [Example 34, (S)-3-(3-(6-carbamoyl-2-(1-ethyl-3-methyl-1H-pyrazole-5-carboxamido)-4-(3-(2-(piperazin-1-yl)acetamido)propoxy)-1H-benzo[d]imidazol-1-yl)propyl)-2-(1-ethyl-3-methyl-1H-pyrazole-5-carboxamido)-3,4-dihydro-5-oxa-1,2a-diazaacenaphthylene-7-carboxamide] | –
– | 4.8 | – | CCn1nc(C)cc1C(=O)Nc1nc2cc(C(N)=O)cc(OCCCO)c2n1CCC[C@H]1COc2cc(C(N)=O)cc3nc(NC(=O)c4cc(C)nn4CC)n1c23 [Example 6, (S)-3-(3-(5-carbamoyl-2-(1-ethyl-3-methyl-1H-pyrazole-5-carboxamido)-7-(3-hydroxypropoxy)-1H-benzo[d]imidazol-1-yl)propyl)-2-(1-ethyl-3-methyl-1H-pyrazole-5-carboxamido)-3,4-dihydro-5-oxa-1,2a-diazaacenaphthylene-7-carboxamide] | Fold change related to DMSO control WT (STING WT variant; compound 57.9 uM): 1.71; Fold change related to DMSO control HAQ (STING HAQ variant; compound 57.9 uM): 32.88
2.22 | 3.9 | 45.86 | CCn1nc(C)cc1C(=O)Nc1nc2cc(C(N)=O)cc(OCCCN(C)C(C)=O)c2n1CCC[C@H]1COc2cc(C(N)=O)cc3nc(NC(=O)c4cc(C)nn4CC)n1c23 [Example 27, (S)-3-(3-(5-carbamoyl-2-(1-ethyl-3-methyl-1H-pyrazole-5-carboxamido)-7-(3-(N-methylacetamido)propoxy)-1H-benzo[d]imidazol-1-yl)propyl)-2-(1-ethyl-3-methyl-1H-pyrazole-5-carboxamido)-3,4-dihydro-5-oxa-1,2a-diazaacenaphthylene-7-carboxamide] | –
1.95 | 0.7 | 46.51 | CCn1nc(C)cc1C(=O)Nc1nc2cc(C(N)=O)cc(OCCOCCOC)c2n1CCC[C@H]1COc2cc(C(N)=O)cc3nc(NC(=O)c4cc(C)nn4CC)n1c23 [Example 25, (S)-3-(3-(5-carbamoyl-2-(1-ethyl-3-methyl-1H-pyrazole-5-carboxamido)-7-(2-(2-methoxyethoxy)ethoxy)-1H-benzo[d]imidazol-1-yl)propyl)-2-(1-ethyl-3-methyl-1H-pyrazole-5-carboxamido)-3,4-dihydro-5-oxa-1,2a-diazaacenaphthylene-7-carboxamide] | –
